Values of other authors in patent US5008256A, “Salts of ranitidine and complexes of bismuth with carboxylic acids, and pharmaceutical compositions thereof” (Glaxo Group Limited, priority 1988, dated 1991).

Experiments:
histamine H2 receptor = conditions: background; in words
Campylobacter pylori = conditions: background; in words

| SMILES | histamine H2-antagonist activity (histamine H2 receptor) | susceptibility of Campylobacter pylori (Campylobacter pylori) |
| --- | --- | --- |
| CNC(=C[N+](=O)[O-])NCCSCc1ccc(CN(C)C)o1 [Ranitidine, N-[2-[[[5-[(dimethylamino)-methyl]-2-furanyl]methyl]thio]ethyl]-N'-methyl-2-nitro-1,1-ethenediamine] | potent histamine H2 -antagonist | – |
| O=C([O-])CC(O)(CC(=O)[O-])C(=O)[O-].O=C([O-])CC(O)(CC(=O)[O-])C(=O)[O-].[Bi+3].[K+].[K+].[K+] [bismuth subcitrate, tripotassium dicitrato bismuthate] | – | susceptible |
